Assay results: the supplement of paper PMC10307832

What was measured:
Experiment in all cases: relative viability (nuclei count vs DMSO), 5 days (fraction); higher = more cells survive
[1] = compound: CC(C)N(CCCNC(=O)Nc1ccc(C(C)(C)C)cc1)C[C@H]1O[C@@H](n2ccc3c(N)ncnc32)[C@H](O)[C@@H]1O + CC(=O)c1c(C)c2cnc(Nc3ccc(N4CCNCC4)cn3)nc2n(C2CCCC2)c1=O [Palbociclib] (partner 0.5 µM)
Method in brief: (§1)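 Lung cancer cell lines in 1536-well plates got either a single drug or a fixed anchor-drug dose together with five library-drug doses (not always all listed) in √10 steps, by pin tool, on the day after seeding. Nuclei were counted after 5 days, and relative viability is the treated-to-vehicle ratio of nuclei counts. Values are medians of duplicate plates.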

Shikonin + Linsitinib = compound: CC(C)=CC[C@@H](O)C1=CC(=O)c2c(O)ccc(O)c2C1=O [Shikonin] + C[C@]1(O)C[C@@H](c2nc(-c3ccc4ccc(-c5ccccc5)nc4c3)c3c(N)nccn32)C1 [Linsitinib] (partner 1 µM)
Method in brief: as §1

Shikonin + Bortezomib = compound: CC(C)=CC[C@@H](O)C1=CC(=O)c2c(O)ccc(O)c2C1=O [Shikonin] + CC(C)C[C@H](NC(=O)[C@H](Cc1ccccc1)NC(=O)c1cnccn1)B(O)O [Bortezomib] (partner 0.002 µM)
Method in brief: as §1

[2] = compound: CC(C)N(CCCNC(=O)Nc1ccc(C(C)(C)C)cc1)C[C@H]1O[C@@H](n2ccc3c(N)ncnc32)[C@H](O)[C@@H]1O + Cc1nc(Nc2ncc(C(=O)Nc3c(C)cccc3Cl)s2)cc(N2CCN(CCO)CC2)n1 [Dasatinib] (partner 0.075 µM)
Method in brief: as §1

Cell Line	relative viability ([1]; first compound 0.08 µM)	relative viability ([1]; first compound 0.253 µM)	relative viability ([1]; first compound 0.8 µM)	relative viability ([1]; first compound 2.53 µM)	relative viability ([1]; first compound 8 µM)	relative viability (Shikonin + Linsitinib; first compound 0.01 µM)	relative viability (Shikonin + Linsitinib; first compound 0.1 µM)	relative viability (Shikonin + Linsitinib; first compound 0.3162 µM)	relative viability (Shikonin + Linsitinib; first compound 1 µM)	relative viability (Shikonin + Bortezomib; first compound 0.01 µM)	relative viability (Shikonin + Bortezomib; first compound 0.1 µM)	relative viability (Shikonin + Bortezomib; first compound 0.3162 µM)	relative viability (Shikonin + Bortezomib; first compound 1 µM)	relative viability ([2]; first compound 0.08 µM)	relative viability ([2]; first compound 0.253 µM)	relative viability ([2]; first compound 0.8 µM)	relative viability ([2]; first compound 2.53 µM)	relative viability ([2]; first compound 8 µM)
HCC-44	0.968	1.05	0.845	0.931	0.91	0.798	0.636	0.685	0.694	0.946	0.99	0.864	0.933					
HCC-78	0.391	0.484	0.502	0.458	0.476	0.499	0.496	0.658	0.56	0.572	0.474	0.607	0.552	0.485	0.311	0.466	0.308	0.32
HCC-366	0.34	0.372	0.41	0.375	0.396	0.592	0.852	0.985	0.673	1.32	1.59	1.12	1.08	0.608	0.647	0.442	0.587	0.536
HCC-827	0.22	0.468	0.32	0.477	0.5	0.909	1.09	0.999	0.906	1.11	1.06	1.03	1.1	0.286	0.44	0.355	0.311	0.423
IA-LM						0.738	0.473	0.434	0.573	0.715	0.769	1.04	0.876					
LK-2		0.665	0.845	0.775	0.622	0.589	0.539	0.527	0.473					0.447	0.294	0.267	0.368	0.302
NCI-H358	0.121	0.127	0.143	0.135	0.132	0.916	0.688	0.857	0.511					0.172	0.158	0.171	0.174	0.165
NCI-H522	0.85	1.05	1.09	1.09	1.4									0.888	0.839	0.896	0.839	0.809
NCI-H596						1.04	0.887	1.16	1.06	1.06	1.01	0.948	1.29	0.603		0.528	0.561	0.619
NCI-H1299						1	1.03	0.82	0.659	1.03	1.03	1.05	1.03					
NCI-H1395	0.587	0.59	0.651	0.626	0.625	1.08	1.4	0.878	1.05					0.471	0.433	0.392	0.441	0.463
NCI-H1563						1.27	1.29	1.23	0.892	0.824	0.909	0.757	0.607	0.447	0.42	0.488	0.434	0.424
NCI-H1623														0.562	0.563	0.571	0.537	0.521
NCI-H1648	0.268	0.315	0.335	0.287	0.323													
NCI-H1650	0.38	0.431	0.131	0.335	0.396					0.269	0.212	0.191	0.171	0.347	0.379		0.275	0.349
NCI-H1703						0.797	1.3	0.555	0.417	0.302	0.361	0.23	0.114					
NCI-H1793	0.295		0.292	0.38	0.303	0.894	0.778	0.891	1.07					0.368		0.355	0.36	0.38
NCI-H1944	0.322	0.302	0.348	0.329	0.353	1.2	1.44	1.35	1.27					0.197	0.197	0.257	0.243	0.222
NCI-H2170	0.407	0.399	0.372	0.381	0.351									0.429	0.478	0.55	0.591	0.562
NCI-H2342	0.556	0.533	0.481	0.551	0.549									0.336	0.29	0.289	0.321	0.277
SK-MES-1	0.317	0.357	0.309	0.375	0.325	1.18	1.06	1.04	1.08					0.348	0.355	0.356	0.475	0.316
SW 900	0.564	0.521		0.543	0.473									0.74	0.542		0.605	0.54
